Values of other authors, collected in patent publication US20160279255A1, “THERAPEUTIC COMPOSITIONS INCLUDING MODULATORS OF deltaPKC AND/OR epsilonPKC, AND USES THEREOF” (priority 2014, published 2016).

Test system: several mammalian cell types
Settings: energy-independent manner; cited from earlier work

For 2′,6′-Dmt-D-Arg-Phe-Lys-NH2, the “penetration of the plasma membrane” value is listed as “readily penetrates the plasma membrane”.
